Measurements: ChEMBL document CHEMBL5113502, “Accommodation of ring C expanded deoxyvasicinone in the HDAC inhibitory pharmacophore culminates into a tractable anti-lung cancer agent and pH-responsive nanocarrier” (Eur J Med Chem, 2022)

Experiments:
Assay type in all cases: functional, cell-based
A549 = test: Cytotoxicity against human A549 cells assessed as cell viability after 48 hrs by MTT assay; conditions: A549, 48 h
HOP-62 = test: Cytotoxicity against human HOP-62 cells assessed as cell viability after 48 hrs by MTT assay; conditions: HOP-62, 48 h
NCI-H727 = test: Cytotoxicity against human NCI-H727 cells assessed as cell viability after 48 hrs by MTT assay; conditions: NCI-H727, 48 h

| Structure (SMILES) | IC50 (A549) [µM] | IC50 (HOP-62) [µM] | IC50 (NCI-H727) [µM] |
| --- | --- | --- | --- |
| O=C(/C=C/c1ccc(CNc2ccc3nc4n(c(=O)c3c2)CCCC4)cc1)NO | 1.56 | 1.71 | 1.34 |
| O=C(CCCCCCC(=O)Nc1ccc2nc3n(c(=O)c2c1)CCCCCC3)NO | 22 | – | – |
| O=C(CCCCCCC(=O)Nc1ccc2nc3n(c(=O)c2c1)CCC3)NO | 17 | – | – |
| O=C(/C=C/c1ccc(CNc2ccc3nc4n(c(=O)c3c2)CCC4)cc1)NO | 1.21 | 1.78 | 1.11 |
| O=c1c2ccccc2nc2n1CCCCC2 | 6 | – | – |
| O=C(CCCCCC(=O)Nc1ccc2nc3n(c(=O)c2c1)CCCCC3)NO | 11 | – | – |
| O=C(CCCCCCC(=O)Nc1ccc2nc3n(c(=O)c2c1)CCCCC3)NO | 14 | – | – |
| O=C(/C=C/c1ccc(CNc2ccc3nc4n(c(=O)c3c2)CCCCCC4)cc1)NO | 1.89 | 1.95 | 1.78 |
| O=C(NO)c1ccc(C(=O)Nc2ccc3nc4n(c(=O)c3c2)CCCCC4)cc1 | 9 | – | – |
| O=C(CCCCCCCCC(=O)Nc1ccc2nc3n(c(=O)c2c1)CCCCC3)NO | 11 | – | – |
| O=C(/C=C/c1cccc(S(=O)(=O)Nc2ccc3nc4n(c(=O)c3c2)CCCCC4)c1)NO | 3 | – | – |
| O=C(CCCCCCC(=O)Nc1ccc2nc3n(c(=O)c2c1)CCCC3)NO | 16 | – | – |
| O=C(CCCCCCCC(=O)Nc1ccc2nc3n(c(=O)c2c1)CCCCC3)NO | 12 | – | – |
| O=C(NO)c1ccc(CNc2ccc3nc4n(c(=O)c3c2)CCCCC4)cc1 | 10 | – | – |
